Data as given in patent US8940798B2, “Compounds useful for treating and/or preventing disease-associated bone loss” (Centre National de al Recherche Scientifique (CNRS), priority 2011, dated 2015).

What was measured:
[1] = tested on: osteoclasts (OCs); assay: TRAP staining of OCs to ascertain absence of toxicity; format: cell-based; settings: 25 μM C21 vs DMSO (not shown)
Source text: OCs were fixed and stained for DNA, actin or vinculin or TRAP as described (16,19).
To confirm the essential role of Rac1 activation by Dock5 in the resorption process, it was sought for a chemical inhibitor of Dock5 exchange activity active in cell cultures. The inventors therefore took advantage of a yeast-based assay that they have developed (BLANGY et al., Identification of TRIO-GEFD1 chemical inhibitors using the yeast exchange assay, 2006, Biol Cell 98(9):511-22 and BOUQUIER et al. A cell active chemical GEF inhibitor selectively targets the Trio/RhoG/Rac1 signaling pathway, 2009, Chem Biol 16(6):657-66.). They constructed a yeast strain where Rac1 activation by Dock5 DHR2 induces the expression of the his3 reporter gene (FIG. 5A), which leads to faster yeast growth in Histidine deprived medium (FIG. 5B). A library of 2,640 heterocyclic commercial chemical compounds as described previously was screened (BOUQUIER et al., see above) for molecules able to inhibit growth of Dock5 DHR2-expressing yeasts in Histidine deprived medium without affecting growth in Histidine complemented medium. C21: N-(3,5-dichlorophenyl)benzenesulfonamide was then identified (FIG. 5C). […] In parallel, control OCs grown in the presence of DMSO or 25 μM C21 were stained for TRAP to ascertain C21 was not toxic (not shown).

[2] = tested on: B16F10 melanoma cells; assay: Bone metastasis model, B16F10 melanoma cells expressing luciferase in C57B1/6 mice; format: in vivo, mouse; settings: 15 mg/d/kg intraperitoneal every day for 12 days; measured at days 7, 10 and 12
Source text: The metastatic tumor cells in the bone matrix produce factors that directly or indirectly stimulate osteoclast differentiation and bone resorbing activity. In return, by resorbing it, the osteoclasts liberate growth factors embedded within the bone matrix that will stimulate the proliferation of metastatic cells. […] C21 being an efficient inhibitor of bone resorption, it was further assayed for its ability to slow down metastatic cell proliferation within the bone marrow. B16-F10 cells are derived from a C57B1/6 mouse melanoma and have a strong tropism for the bone. They are classically used as a model for bone metastases.
19 C57B1/6 mice received an injection of 10^5 B16F10 melanoma cells expressing luciferase in the left ventricle, 9 mice received the C21 compound (test group), 15 mg/d/kg solubilized in 100 μl of 5% EtOH and 4% solutol, every days for 12 days, as an intraperitoneal injection, and the other 10 mice (control group) received 100 μl of 5% ethanol/4% solutol vehicle solution.
The proliferation of B16F10 cells was followed by their bioluminescence, measured at days 7, 10 and 12 after injection of the cells (FIG. 20).

[3] = tested on: osteoclasts (OCs); assay: Resorption of calcium-phosphate matrices by OCs; format: cell-based, mouse; settings: 25 μM C21 (not shown)
Experimental: BMMs were isolated from long bones of 4- to 8-week-old animals as described (16) and OCs obtained by culturing BMMs with RANKL (100 ng/ml) and M-CSF (10 ng/ml) (Peprotech) for 5 days. RAW264.7 cells were grown for 5 days with RANKL (50 ng/ml) to obtain OCs. For resorption, OCs were differentiated in multiwell chambers or on coverslips coated with calcium phosphate (Osteologic Biocoat, BD Bioscience) or in 96-well plates containing a bovine bone slice (IDS Nordic Bioscience). Mesenchymal stem cells (MSCs) were isolated from mouse bone marrow and grown as described (18).
OCs in multiwell Osteologic Biocoat were fixed at day 7 of differentiation and calciumphosphate was stained with von Kossa as described (BRAZIER et al, 2009, see above). The entire well surface was imaged using a Zeiss AxioimagerZ1 microscope. Well image was reconstituted and resorbed areas were measured using MetaMorph 7.0 software (Molecular Devices). For bone resorption assays, OCs were derived from BMMs in 96-well plates containing bovine bone slices. At day 5 of differentiation, medium was changed with fresh medium. After 2 days, CTx concentrations were measured using Crosslap (IDS Nordic Bioscience). […]

Question: For `O=S(=O)(Nc1cc(Cl)cc(Cl)c1)c1ccccc1` [C21, N-(3,5-dichlorophenyl)benzenesulfonamide], which “Toxicity to OCs by TRAP staining” value [1] is on record?
Answer: not toxic

Question: And the “Proliferation of B16F10 cells, bioluminescence in the tibia” value [2]?
Answer: markedly slowed down

Question: And the “Resorption of calcium-phosphate matrices” value [3]?
Answer: efficiently inhibits
